Assay results from ChEMBL document CHEMBL1201862, “PubChem BioAssay data set” (2004).
Activity calls are given as the source filed them. Cut-off read from the data, not from the text of the source, for most assays here: actives have a measured EC50 and inactives only a lower limit.

Key:
Streptococcus = assay: Group A Streptococcus viability loss, dose response, counter-screen for streptokinase expression inhibitor project, luminescence, BacTiterGlo (AID 1915); type: functional, organism-based;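 note: potency for reduction of bacterial viability or growth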
[1] = test system: Streptococcus sp. 'group A'; assay: growth inhibition of control SK(-) GAS strain, dose response, counter-screen for streptokinase expression inhibitor project, luminescence, kanamycin, BacTiterGlo, confirmation (AID 1900); type: functional, organism-based
Vero = Vero cell cytotoxicity, cytotoxicity control for flavivirus capping enzyme inhibitors (AID 588742); type: functional; settings: Chlorocebus sabaeus
Streptokinase A = biological target: T1, Streptokinase A (Streptococcus pyogenes serotype M1, UniProt P10520); assay: S. pyogenes streptokinase expression inhibitors, potency, dose response, plasminogen activation absorbance, OD405 (AID 1914); type: functional, Streptococcus pyogenes M1 GAS;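 note: secreted streptokinase activity via plasminogen activation per viability signal from cell pellet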
T1 sequence (P10520 whole entry): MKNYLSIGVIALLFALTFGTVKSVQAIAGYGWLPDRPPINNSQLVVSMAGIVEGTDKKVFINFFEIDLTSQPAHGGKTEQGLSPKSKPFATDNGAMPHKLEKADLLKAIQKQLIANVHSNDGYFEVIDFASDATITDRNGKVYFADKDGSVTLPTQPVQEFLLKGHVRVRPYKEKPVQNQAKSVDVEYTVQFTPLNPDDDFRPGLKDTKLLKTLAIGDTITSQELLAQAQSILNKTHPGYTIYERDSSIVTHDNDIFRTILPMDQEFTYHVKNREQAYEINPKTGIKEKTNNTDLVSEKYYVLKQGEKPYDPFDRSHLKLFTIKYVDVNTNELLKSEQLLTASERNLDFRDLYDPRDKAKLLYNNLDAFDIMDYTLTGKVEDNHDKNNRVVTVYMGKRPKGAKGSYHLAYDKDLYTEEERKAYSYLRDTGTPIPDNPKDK

BJ [2] = assay: cytotoxicity toward BJ-TERT fibroblasts, dose response, cell-based, RAS-independent, luminescence (AID 1933); type: functional; settings: Homo sapiens
INS1 = assay: beta cell apoptosis inhibitors, cytokine rescue, dose response, luminescence, retest (AID 449756); type: functional, cell-based; settings: Rattus norvegicus;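 note: cell death triggered by IL-1 beta plus TNF-alpha plus IFN-gamma mixture; protective hits raise ATP signal compared with cytokine alone wells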
[3] = cytotoxicity toward DRD oncogenic fibroblasts, dose response, cell-based, non-viral oncogenic, luminescence (AID 1934); type: functional; settings: Homo sapiens
BJ [4] = assay: cytotoxicity toward Ras-transformed BJeLR fibroblasts, dose response, cell-based, alamar blue fluorescence, cherrypicked samples (AID 2631); type: functional; settings: Homo sapiens;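 note: confirmatory dose-response assay in RAS-dependent BJ fibroblasts engineered with TERT, LT and ST, with cytotoxicity read by fluorescence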
[5] = biological target: T2, Ubiquitin-conjugating enzyme E2 N (Homo sapiens, UniProt P61088); type: functional;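 note: Dose-response confirmation in a TR-FRET assay detecting UBC13-driven polyubiquitin chain formation, inhibition measured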
T2 sequence (P61088 whole entry): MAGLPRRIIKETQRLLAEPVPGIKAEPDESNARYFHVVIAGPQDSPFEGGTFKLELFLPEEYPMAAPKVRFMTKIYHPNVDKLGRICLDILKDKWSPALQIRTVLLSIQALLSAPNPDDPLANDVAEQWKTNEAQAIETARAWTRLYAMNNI

BJ [6] = assay: cytotoxicity toward BJ-TERT-LT-ST fibroblasts, dose response, cell-based, RAS-independent, luminescence (AID 1935); type: functional; settings: Homo sapiens;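 note: BJ fibroblasts immortalized with TERT plus LT and ST oncogenes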
BJ [7] = assay: cells; type: functional, cell-based; settings: Homo sapiens
[8] = biological target: T3, DNA repair protein RAD52 homolog (Homo sapiens, UniProt P43351); type: functional, biochemical
T3 sequence (P43351 whole entry): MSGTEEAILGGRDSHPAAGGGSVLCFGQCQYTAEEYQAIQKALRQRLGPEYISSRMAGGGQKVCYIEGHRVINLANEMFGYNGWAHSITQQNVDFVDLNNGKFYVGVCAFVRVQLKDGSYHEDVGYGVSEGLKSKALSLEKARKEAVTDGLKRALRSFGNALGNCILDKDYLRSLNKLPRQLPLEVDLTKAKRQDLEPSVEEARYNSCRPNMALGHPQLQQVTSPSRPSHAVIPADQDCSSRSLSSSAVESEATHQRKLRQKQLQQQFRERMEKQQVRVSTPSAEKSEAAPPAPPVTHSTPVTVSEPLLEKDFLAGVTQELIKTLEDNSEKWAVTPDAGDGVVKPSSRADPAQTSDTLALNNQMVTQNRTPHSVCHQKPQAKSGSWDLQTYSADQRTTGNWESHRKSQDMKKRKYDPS

[9] = biological target: T4, Apoptotic protease-activating factor 1 (Homo sapiens, UniProt O14727); type: functional
T4 sequence (O14727 whole entry): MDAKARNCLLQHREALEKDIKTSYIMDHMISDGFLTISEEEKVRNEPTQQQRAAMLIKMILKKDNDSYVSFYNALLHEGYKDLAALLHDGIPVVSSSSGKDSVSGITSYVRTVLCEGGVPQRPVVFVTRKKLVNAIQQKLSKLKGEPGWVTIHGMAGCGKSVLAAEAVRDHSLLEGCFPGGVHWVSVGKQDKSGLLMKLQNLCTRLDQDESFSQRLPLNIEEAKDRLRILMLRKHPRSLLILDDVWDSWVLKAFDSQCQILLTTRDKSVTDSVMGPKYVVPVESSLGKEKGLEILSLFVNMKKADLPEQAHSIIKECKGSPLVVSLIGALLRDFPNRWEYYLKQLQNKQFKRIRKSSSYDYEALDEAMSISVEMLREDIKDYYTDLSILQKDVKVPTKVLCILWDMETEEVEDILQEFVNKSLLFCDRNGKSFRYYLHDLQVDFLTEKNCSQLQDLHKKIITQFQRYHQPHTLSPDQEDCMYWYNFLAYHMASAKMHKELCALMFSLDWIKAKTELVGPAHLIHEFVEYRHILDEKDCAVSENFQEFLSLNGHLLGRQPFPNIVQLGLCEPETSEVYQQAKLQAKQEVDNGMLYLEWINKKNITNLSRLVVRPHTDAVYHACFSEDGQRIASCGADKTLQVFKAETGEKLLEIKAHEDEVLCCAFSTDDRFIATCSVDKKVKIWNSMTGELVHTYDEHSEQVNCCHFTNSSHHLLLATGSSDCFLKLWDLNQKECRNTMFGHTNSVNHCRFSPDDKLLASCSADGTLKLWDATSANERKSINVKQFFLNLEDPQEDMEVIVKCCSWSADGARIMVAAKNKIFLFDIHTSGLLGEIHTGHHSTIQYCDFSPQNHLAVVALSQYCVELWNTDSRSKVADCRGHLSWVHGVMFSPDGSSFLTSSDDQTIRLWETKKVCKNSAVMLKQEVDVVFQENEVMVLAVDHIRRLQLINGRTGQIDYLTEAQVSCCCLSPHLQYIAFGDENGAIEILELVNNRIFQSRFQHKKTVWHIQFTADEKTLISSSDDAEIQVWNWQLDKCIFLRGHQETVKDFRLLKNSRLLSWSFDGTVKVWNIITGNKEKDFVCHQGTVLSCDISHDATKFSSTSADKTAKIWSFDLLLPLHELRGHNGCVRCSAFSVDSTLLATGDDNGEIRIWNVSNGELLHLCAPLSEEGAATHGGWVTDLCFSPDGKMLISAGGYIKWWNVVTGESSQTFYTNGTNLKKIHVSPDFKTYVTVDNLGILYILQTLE

Protein RecA = biological target: T5, Protein RecA (Mycobacterium tuberculosis, UniProt P9WHJ3); assay: Fluorescence Cell-Free Homogeneous Dose Retest to Identify Inhibitors of RecA-Intein Splicing Activity. [Related pubchem assays (depositor defined):AID2097, AID2223, AID489010, AID492950]; type: functional
T5 sequence (P9WHJ3 whole entry): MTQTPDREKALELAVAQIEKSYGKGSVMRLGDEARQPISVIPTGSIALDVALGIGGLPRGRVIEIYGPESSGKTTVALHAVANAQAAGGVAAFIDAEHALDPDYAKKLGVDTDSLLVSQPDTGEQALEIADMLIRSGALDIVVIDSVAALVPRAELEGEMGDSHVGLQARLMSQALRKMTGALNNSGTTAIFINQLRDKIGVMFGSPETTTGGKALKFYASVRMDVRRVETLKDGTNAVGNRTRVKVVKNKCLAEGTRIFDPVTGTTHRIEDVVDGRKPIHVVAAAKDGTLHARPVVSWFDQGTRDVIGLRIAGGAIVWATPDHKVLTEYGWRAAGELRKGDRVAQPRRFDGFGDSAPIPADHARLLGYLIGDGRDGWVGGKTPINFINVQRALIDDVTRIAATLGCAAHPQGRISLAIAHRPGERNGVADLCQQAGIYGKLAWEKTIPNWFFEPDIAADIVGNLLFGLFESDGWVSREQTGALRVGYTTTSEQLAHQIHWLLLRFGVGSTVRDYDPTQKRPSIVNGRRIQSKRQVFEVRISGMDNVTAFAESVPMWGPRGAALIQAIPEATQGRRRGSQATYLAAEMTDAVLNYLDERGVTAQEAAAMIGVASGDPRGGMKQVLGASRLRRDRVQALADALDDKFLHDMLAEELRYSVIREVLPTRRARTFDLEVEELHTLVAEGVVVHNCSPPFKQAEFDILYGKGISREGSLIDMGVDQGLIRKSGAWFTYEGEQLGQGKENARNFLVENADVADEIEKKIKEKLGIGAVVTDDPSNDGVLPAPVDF

[10] = biological target: T6, Replicative DNA helicase DnaB (Mycobacterium tuberculosis, UniProt P9WMR3); assay: DnaB intein splicing inhibitors, dose response, biochemical, cell-free fluorescence (AID 449749); type: functional
T6 sequence (P9WMR3 whole entry): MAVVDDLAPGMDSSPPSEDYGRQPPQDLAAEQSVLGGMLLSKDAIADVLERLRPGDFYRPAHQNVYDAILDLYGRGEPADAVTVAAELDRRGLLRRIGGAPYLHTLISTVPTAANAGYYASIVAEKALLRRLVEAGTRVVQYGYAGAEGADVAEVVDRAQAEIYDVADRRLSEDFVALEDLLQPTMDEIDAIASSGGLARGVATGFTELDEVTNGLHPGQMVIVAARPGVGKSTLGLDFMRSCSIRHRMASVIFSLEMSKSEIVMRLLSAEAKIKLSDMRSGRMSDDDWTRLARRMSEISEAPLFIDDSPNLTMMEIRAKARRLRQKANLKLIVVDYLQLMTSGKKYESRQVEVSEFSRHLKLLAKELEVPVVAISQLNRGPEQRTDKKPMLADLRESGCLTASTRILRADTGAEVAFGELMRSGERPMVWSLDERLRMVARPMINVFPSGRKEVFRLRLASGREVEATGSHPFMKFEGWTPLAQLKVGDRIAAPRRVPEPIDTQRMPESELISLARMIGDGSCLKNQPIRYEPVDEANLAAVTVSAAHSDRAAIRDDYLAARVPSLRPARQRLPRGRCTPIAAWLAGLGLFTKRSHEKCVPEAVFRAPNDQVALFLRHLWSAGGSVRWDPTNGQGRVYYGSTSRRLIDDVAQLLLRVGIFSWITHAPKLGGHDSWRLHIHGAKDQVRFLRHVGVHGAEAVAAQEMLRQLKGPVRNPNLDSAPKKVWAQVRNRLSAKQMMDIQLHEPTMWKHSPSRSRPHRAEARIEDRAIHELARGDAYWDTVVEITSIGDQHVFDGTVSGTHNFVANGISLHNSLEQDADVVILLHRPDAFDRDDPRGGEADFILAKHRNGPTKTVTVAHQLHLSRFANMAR

Row | SMILES | CC50 (Vero) | EC50 (BJ [2]) | EC50 [3] | EC50 (BJ [4]) | EC50 (BJ [6]) | EC50 (BJ [7]) | further results
1 | COc1ccc(NC(S)=NNc2ccc([N+](=O)[O-])cc2S(=O)(=O)Nc2ccc(C)cc2C)cc1 | 12.2 µM (active) |  |  |  |  |  | EC50 (Streptococcus): 37.7 µM (active); EC50 [1]: 6.57 µM (active); EC50 (Streptokinase A): > 150 µM (not active)
2 | COc1ccc(C2c3ccc4ccccc4c3Oc3ncn(CCCN(C)C)c(=N)c32)cc1 (stereo unspecified) |  | 5.07 µM (inconclusive) | 4.43 µM (active) | 2.86 µM (inconclusive) | 4.18 µM (active) | 7.71 µM (active) | AC50 (INS1): 7.32 µM (active); IC50 [5]: > 20 µM (inactive); AC50 [8]: 2.33 µM (active)
3 | CCCN1C(=O)/C(=C\C=C2/C=CN(CC)c3ccccc32)SC1=S | > 40 µM (active) |  |  |  |  |  | 
4 | CCc1ccc(NC(=S)Nc2cccc3cnccc23)cc1 |  |  |  |  |  |  | IC50 [9]: 20 µM (active)
5 | CCSc1cc(C2C(C#N)=C(N)Oc3[nH]nc(C)c32)c(C)o1 (stereo unspecified) |  | 25.5 µM (active) | 14.7 µM (active) | 8.45 µM (active) | > 150 µM (not active) | 17.7 µM (active) | EC50 (Protein RecA): 3.29 µM (active); AC50 [10]: 10.3 µM (active)
